{"source": "patent US20100190846A1", "about": "“MICROBICIDAL AGENT AND MICROBICIDAL COMPOSITION” (priority 2006, published 2010)", "key": {"Pseudomonas aeruginosa": {"tested_on": "Pseudomonas aeruginosa", "experiment": "Paper disk method microbicidal test", "type": "cell-based", "conditions": "for size of the inhibition ring: 0 mg/mL control: 12.33 (flavone, 40% DMSO), — (catechin)", "experimental": "(§1) As microbicidal test method for 5,7,4′-trihydroxy-3′,5′-dimethoxyflavone, the paper disk method was employed, by which method the microbicidal activity can be judged even in cases where a solvent has some influences.\n(§2) In paper disk method, sample solutions having various sample concentration are prepared, and the sample solution was absorbed in a special paper disk, followed by drying the paper disk. Onto the plate which is made by mixing a prepared bacterial suspension with agar medium, the paper disks are placed. If the sample has a microbicidal activity, the inhibition ring which indicates the inhibition of bacterial growth is formed such that the center of the ring is coincident with the paper disk. The degree of a microbicidal activity is judged based on the size of the inhibition ring.\n(§3) First, 4 mg of 5,7,4′-trihydroxy-3′,5′-dimethoxyflavone sample was dissolved in 200 μL to prepare 20 mg/mL sample solution. To 100 μL of this 20 mg/mL sample solution, 100 μL of sterilized water was added to prepare 200 μL of 10 mg/mL sample solution. To the solution, 60 μL DMSO and 140 μL of sterilized water were added to prepare 400 μL of 5.0 mg/mL sample solution. DMSO was used in the concentration of 40%, because the sample precipitated from 30% DMSO. To 350 μL of 5.0 mg/mL sample solution, 140 μL DMSO and 210 μL of sterilized water were added to prepare 700 μL of 2.5 mg/mL sample solution. In the same manner, 1.25 mg/mL and 0.625 mg/mL sample solutions were prepared. As a control, a solution containing 40% DMSO and 60% sterilized water was prepared. […] In a paper disk (8.12 mm diameter), 70 μL of these solutions each was absorbed, and the paper disks were dried for a day.\n(§4) As test bacteria, Staphylococcus aureus, Salmonella sp., Yersinia enterocolitica, Pseudomonas aeruginosa, and Candida sp. were used. These bacteria were mixed with 2 mL of sterilized water to prepare bacterial suspensions having turbidity 1 (10^8/mL). The plate agar was made by mixing 0.2 mL of the bacterial suspension with 19.8 mL of BHI medium. The dried paper disk was placed onto the plate agar, and the plate was incubated in an incubator at 37° C., followed by assessing the activity. In the Table, (-) represents that no microbicidal activity was observed."}, "Candida sp.": {"tested_on": "Candida sp.", "experiment": "Paper disk method microbicidal test", "type": "cell-based", "conditions": "0 mg/mL control: 11.86 (flavone, 40% DMSO), — (catechin)", "experimental": "as §1, §2, §3, §4"}, "Salmonella sp.": {"tested_on": "Salmonella sp.", "experiment": "Paper disk method microbicidal test", "type": "cell-based", "conditions": "for size of the inhibition ring: 0 mg/mL control: 12.35 (flavone, 40% DMSO), — (catechin)", "experimental": "as §1, §2, §3, §4"}, "Yersinia enterocolitica": {"tested_on": "Yersinia enterocolitica", "experiment": "Paper disk method microbicidal test", "type": "cell-based", "conditions": "0 mg/mL control: 15.65 (flavone, 40% DMSO), — (catechin)", "experimental": "as §1, §2, §3, §4"}, "[1]": {"experiment": "Solubility in DMSO observed during sample preparation", "type": "physicochemical", "conditions": "30% DMSO; 40% DMSO used instead", "experimental": "First, 400 mg of sample was dissolved in 1 mL of DMSO to prepare 400 mg/mL sample solution. Then 0.5 mL of this 400 mg/mL sample solution was diluted 2-fold to prepare 200 mg/mL sample solution. In the same manner, sample solutions of 100 mg/mL, 50.0 mg/mL, and 25.0 mg/mL were prepared. In addition, 300 mg/mL sample solution was prepared. Thereafter, 0.2 mL of these sample solutions each was mixed with 19.8 mL of BHI (Brain Heart Infusion Agar, Becton Dickinson, MD) medium, thereby preparing agar plates having the sample concentration of 4.0 mg/mL, 3.0 mg/mL, 2.0 mg/mL, 1.0 mg/mL, 0.5 mg/mL, and 0.25 mg/mL in dishes. […] Sterilized water was used for dissolving catechin, because catechin was insoluble in DMSO.\nFirst, 4 mg of 5,7,4′-trihydroxy-3′,5′-dimethoxyflavone sample was dissolved in 200 μL to prepare 20 mg/mL sample solution. To 100 μL of this 20 mg/mL sample solution, 100 μL of sterilized water was added to prepare 200 μL of 10 mg/mL sample solution. To the solution, 60 μL DMSO and 140 μL of sterilized water were added to prepare 400 μL of 5.0 mg/mL sample solution. DMSO was used in the concentration of 40%, because the sample precipitated from 30% DMSO. To 350 μL of 5.0 mg/mL sample solution, 140 μL DMSO and 210 μL of sterilized water were added to prepare 700 μL of 2.5 mg/mL sample solution. In the same manner, 1.25 mg/mL and 0.625 mg/mL sample solutions were prepared. […]"}, "[2]": {"conditions": "0.625 mg/mL solution on 8.12 mm paper disk"}, "[3]": {"conditions": "1.25 mg/mL solution on 8.12 mm paper disk"}, "[4]": {"conditions": "2.5 mg/mL solution on 8.12 mm paper disk"}}, "note": "“Also recorded” adds a separate entry of the source.", "data": [{"smiles": "COc1cc(-c2cc(=O)c3c(O)cc(O)cc3o2)cc(OC)c1O", "note": "[5,7,4′-Trihydroxy-3′,5′-Dimethoxyflavone, 5,7,4′-trihydroxy-3′,5′-dimethoxyflavone]", "values": [{"measurement": "size of the inhibition ring", "setting": "Pseudomonas aeruginosa; [2]", "value": 15.46}, {"measurement": "size of the inhibition ring", "setting": "Pseudomonas aeruginosa; [3]", "value": 18.54}, {"measurement": "size of the inhibition ring", "setting": "Pseudomonas aeruginosa; [4]", "value": 19.20}, {"measurement": "microbicidal activity (in words)", "setting": "Pseudomonas aeruginosa; paper disk method", "value": "had a microbicidal activity; also recorded: very strong even compared to catechin"}, {"measurement": "size of the inhibition ring", "setting": "Candida sp.; [2]", "value": 11.86}, {"measurement": "size of the inhibition ring", "setting": "Candida sp.; [3]", "value": 12.30}, {"measurement": "size of the inhibition ring", "setting": "Candida sp.; [4]", "value": 11.90}, {"measurement": "size of the inhibition ring", "setting": "Salmonella sp.; [2]", "value": 12.35}, {"measurement": "size of the inhibition ring", "setting": "Salmonella sp.; [3]", "value": 13.82}, {"measurement": "size of the inhibition ring", "setting": "Salmonella sp.; [4]", "value": 16.65}, {"measurement": "microbicidal activity (in words)", "setting": "Salmonella sp.; paper disk method", "value": "had a microbicidal activity; also recorded: very strong even compared to catechin"}, {"measurement": "size of the inhibition ring", "setting": "Yersinia enterocolitica; [2]", "value": 15.67}, {"measurement": "size of the inhibition ring", "setting": "Yersinia enterocolitica; [3]", "value": 15.76}, {"measurement": "size of the inhibition ring", "setting": "Yersinia enterocolitica; [4]", "value": 15.76}, {"measurement": "solubility in aqueous DMSO", "setting": "[1]", "value": "precipitated"}]}]}
